Reference: US12600732B2, “Bifunctional compounds for degrading BTK via ubiquitin proteosome pathway” (NURIX THERAPEUTICS, INC., priority 2019, dated 2026)
Values joined by “and” are separate entries in the source; they are usually repeats but may differ in a detail not shown here. Equal values may be shown once.

Key:
BTK C481S = BTK C481S (Homo sapiens, UniProt Q06187, C481S); test: BTK remaining in TMD8 C481S mouse xenograft study; assay type: in vivo; design: from tissue; host or cells: TMD8 BTK-C481S xenograft in CB.17 SCID mice; settings: PO, 23 days of dosing
Text: (§1) Efficacy in Mouse Xenograft Models
(§2) This example examines the activity of various BTK CTMs in relevant disease models, including the WT and C481S TMD8 model, which models B cell malignancies with/without inhibitor-driven BTK mutations at C481.

1:1 TMD8 WT:TMD8 C481S = test: Mouse xenograft efficacy study, 1:1 TMD8 WT:TMD8 C481S model; assay type: in vivo; settings: PO, 30 mg/kg, BID, 21 days of dosing
Text: as §1, §2

BTK [1] = biological target: BTK (Homo sapiens, UniProt Q06187); test: BTK remaining in TMD8 WT mouse xenograft study; assay type: in vivo; design: from tissue; host or cells: TMD8 xenograft in CB.17 SCID mice
Text: as §1, §2

TMD8 tumor cells = test: TMD8 xenograft efficacy study (wild-type BTK); assay type: in vivo, mouse; settings: TMD8 WT
Experimental: […] Tumor growth inhibition (% TGI) were calculated on the final day of measurement using the equation [1−(T−T0/C−T0)]×100, where T and C represent the mean size of tumors in the treated (T) and control (C) groups, and T0 refers to the tumor size at randomization.
as §2

BTK [2] = biological target: T1, BTK (Rattus norvegicus, UniProt Q5S255); test: PD data from rat (BTK degradation); assay type: in vivo; settings: blood
T1 construct: from tissue
Text: In this example, compounds were profiled for activity in non-mouse species.

[3] = PO (water bottle), 15 mg/kg, QD (water bottle), 21 days of dosing
[4] = PO (water bottle), 35 mg/kg, QD (water bottle), 23 days of dosing

CN1CCN([C@@H]2CCCN(c3cnc(C(N)=O)c(Nc4ccc(C5CCN(C[C@H]6CCN(c7ccc8c(c7)C(=O)N(C7CCC(=O)NC7=O)C8=O)C6)CC5)cc4)n3)C2)C1=O (stereo partly drawn) [Compound 44]
BTK Remaining (% relative to vehicle) (BTK C481S; 5 mg/kg, BID): 44%
BTK Remaining (% relative to vehicle) (BTK C481S; 10 mg/kg, QD): 38%
BTK Remaining (% relative to vehicle) (BTK C481S; 15 mg/kg, BID): 25%
BTK Remaining (% relative to vehicle) (BTK C481S; 30 mg/kg, BID): 39% and 35%
BTK Remaining (% relative to vehicle) (BTK C481S; 30 mg/kg, QD): 51% and 42%
BTK Remaining (% relative to vehicle) (BTK C481S; 60 mg/kg, QD): 36%
Tumor Growth Inhibition (relative to vehicle) (1:1 TMD8 WT:TMD8 C481S): 54%
BTK Remaining (% relative to vehicle) (BTK [1]; [3]): 7%
BTK Remaining (% relative to vehicle) (BTK [1]; [4]): 18%
BTK Remaining (% relative to vehicle) (BTK [1]; PO, 30 mg/kg, QD, 21 days of dosing): 32% and 20%
Tumor Growth Inhibition (relative to vehicle) (TMD8 tumor cells; [3]): 29%
Tumor Growth Inhibition (relative to vehicle) (TMD8 tumor cells; [4]): 89%
Tumor Growth Inhibition (relative to vehicle) (TMD8 tumor cells; PO, 7.5 mg/kg, BID, 21 days of dosing): 100%
Tumor Growth Inhibition (relative to vehicle) (TMD8 tumor cells; PO, 15 mg/kg, BID, 21 days of dosing): 100%
Tumor Growth Inhibition (relative to vehicle) (TMD8 tumor cells; PO, 30 mg/kg, BID, 23 days of dosing): 99%
Tumor Growth Inhibition (relative to vehicle) (TMD8 tumor cells; PO, 30 mg/kg, QD, 23 days of dosing): 83%
Tumor Growth Inhibition (relative to vehicle) (TMD8 tumor cells; PO, 90 mg/kg, BID, 23 days of dosing): 100%
Tumor Growth Inhibition (relative to vehicle) (TMD8 tumor cells; PO, 90 mg/kg, QD, 23 days of dosing): 93%

CN1CCN([C@H]2CCCN(c3cnc(C(N)=O)c(Nc4ccc(C5CCN(CC6CCN(c7ccc(C(=O)NC8CCC(=O)NC8=O)nc7)CC6)CC5)cc4)n3)C2)C1=O (stereo partly drawn) [Compound 130]
% BTK Remaining (BTK [2]; 1 mg/kg IV, 4 h): <1%
% BTK Remaining (BTK [2]; 1 mg/kg IV, 24 h): <1%
% BTK Remaining (BTK [2]; 10 mg/kg PO, 4 h): <1%
% BTK Remaining (BTK [2]; 10 mg/kg PO, 24 h): <1%
% BTK Remaining (BTK [2]; 30 mg/kg PO, 4 h): <1%
% BTK Remaining (BTK [2]; 30 mg/kg PO, 24 h): <1%
